Measured values reported in patent US12479843B2, “Spiro ring-containing quinazoline compounds” (WIGEN BIOMEDICINE TECHNOLOGY (SHANGHAI) CO., LTD., priority 2019, dated 2025).

Experiments:
[1] = tested on: pERK level in H358 cells; test: pERK and ERK protein content assay in H358 cells (ELISA); assay type: cell-based; settings: Homo sapiens, NCI-H358, compound 1 μM, 24 h, pERK/ERK ratio compared with DMSO group, read-out: Inhibition rate (%) of pERK level
In short: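 Percent inhibition of pERK relative to DMSO, from the ELISA pERK/ERK ratio in lysed H358 cells. Compound applied at 1 μM for 24 h after one day of growth.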

[2] = tested on: H358 cells; test: Antiproliferative activity against H358 cells (Cell Titer Glow, ultra-low attachment plate); assay type: cell-based; settings: Homo sapiens, NCI-H358, 72 h, 96-well ultra-low attachment plate, three days after addition of compound, Cell Titer Glow
Description: 2500 H358 cells were seeded in a 96-well ultra-low attachment plate (corning, 7007). After one day of growth, a serially diluted compound (a maximum concentration of 5 μM, 5-fold dilution, a total of five doses) was added. Three days after the addition of the compound, Cell Titer Glow (Promega, G9681) was added to evaluate pellet growth, and the IC50 value was calculated.

Structure (SMILES) | IC50 [2] [nM] | inhibition at 1 µM [1] [%]
C=CC(=O)N1CC2(CCN(c3nc(N4CCC(N5CCOCC5)CC4)nc4c(OCC(F)(F)F)c(-c5c(C)ccc6[nH]ncc56)c(C5CC5)cc34)CC2)C1 [Compound 148] | 300 to 1000 | 50 to 90
C=C(F)C(=O)N1CC2(CCN(c3nc(N4CCC(N5CCOCC5)CC4)nc4c(OCC(F)(F)F)c(-c5c(C)ccc6[nH]ncc56)c(C5CC5)cc34)CC2)C1 [Compound 149] | 300 to 1000 | 50 to 90
C=CC(=O)N1CC2(CCN(c3nc(OC4CN5CCC4CC5)nc4c(OCC(F)(F)F)c(-c5c(C)ccc6[nH]ncc56)c(C5CC5)cc34)CC2)C1 (stereo not drawn) [Compound 150] | < 300 | > 90
C=C(F)C(=O)N1CC2(CCN(c3nc(OC4CN5CCC4CC5)nc4c(OCC(F)(F)F)c(-c5c(C)ccc6[nH]ncc56)c(C5CC5)cc34)CC2)C1 (stereo not drawn) [Compound 151] | 300 to 1000 | > 90
C=CC(=O)N1CC2(CCN(c3nc(N4CCN(C5COC5)CC4)nc4c(OCC(F)(F)F)c(-c5c(C)ccc6[nH]ncc56)c(C5CC5)cc34)CC2)C1 [Compound 152] | < 300 | > 90
C=C(F)C(=O)N1CC2(CCN(c3nc(N4CCN(C5COC5)CC4)nc4c(OCC(F)(F)F)c(-c5c(C)ccc6[nH]ncc56)c(C5CC5)cc34)CC2)C1 [Compound 153] | < 300 | > 90
C=CC(=O)N1CC2(CCN(c3nc(N4CCN(C5CCOCC5)CC4)nc4c(OCC(F)(F)F)c(-c5c(C)ccc6[nH]ncc56)c(C5CC5)cc34)CC2)C1 [Compound 154] | < 300 | > 90
C=C(F)C(=O)N1CC2(CCN(c3nc(N4CCN(C5CCOCC5)CC4)nc4c(OCC(F)(F)F)c(-c5c(C)ccc6[nH]ncc56)c(C5CC5)cc34)CC2)C1 [Compound 155] | 300 to 1000 | 50 to 90
C=CC(=O)N1CC2(CCN(c3nc(N4CC5(CCOCC5)C4)nc4c(OCC(F)(F)F)c(-c5c(C)ccc6[nH]ncc56)c(C5CC5)cc34)CC2)C1 [Compound 156] | < 300 | > 90
C=CC(=O)N1CC2(CCN(c3nc(N4CC5(CN(CC6CC6)C5)C4)nc4c(OCC(F)(F)F)c(-c5c(C)ccc6[nH]ncc56)c(C5CC5)cc34)CC2)C1 [Compound 157] | < 300 | > 90
C=CC(=O)N1CC2(CCN(c3nc(N4CC5(C4)CN(C4COC4)C5)nc4c(OCC(F)(F)F)c(-c5c(C)ccc6[nH]ncc56)c(C5CC5)cc34)CC2)C1 [Compound 158] | < 300 | > 90
C=CC(=O)N1CC2(CCN(c3nc(N4CCC5(CCN(C)C5)C4)nc4c(OCC(F)(F)F)c(-c5c(C)ccc6[nH]ncc56)c(C5CC5)cc34)CC2)C1 (stereo not drawn) [Compound 159] | < 300 | > 90
C=CC(=O)N1CC2(CCN(c3nc(N4CCC5(CCN(CCOC)C5)C4)nc4c(OCC(F)(F)F)c(-c5c(C)ccc6[nH]ncc56)c(C5CC5)cc34)CC2)C1 (stereo not drawn) [Compound 160] | < 300 | > 90
C=CC(=O)N1CC2(CCN(c3nc(N4CCC5(CCN(C)CC5)C4)nc4c(OCC(F)(F)F)c(-c5c(C)ccc6[nH]ncc56)c(C5CC5)cc34)CC2)C1 [Compound 161] | < 300 | > 90
C=CC(=O)N1CC2(CCN(c3nc(N4CCC5(CC4)CC(N)C5)nc4c(OCC(F)(F)F)c(-c5c(C)ccc6[nH]ncc56)c(C5CC5)cc34)CC2)C1 [Compound 162] | < 300 | > 90
C=CC(=O)N1CC2(CCN(c3nc(N4CCC5(CCN(C)C5)CC4)nc4c(OCC(F)(F)F)c(-c5c(C)ccc6[nH]ncc56)c(C5CC5)cc34)CC2)C1 [Compound 163] | < 300 | > 90
C=CC(=O)N1CC2(CCN(c3nc(N4CCC5(CCN(C)CC5)CC4)nc4c(OCC(F)(F)F)c(-c5c(C)ccc6[nH]ncc56)c(C5CC5)cc34)CC2)C1 [Compound 164] | < 300 | > 90
C=CC(=O)N1CC2(CCN(c3nc(N4CC(N(C)CC)C4)nc4c(OCC(F)(F)F)c(-c5c(C)ccc6[nH]ncc56)c(C5CC5)cc34)CC2)C1 [Compound 165] | < 300 | > 90
C=CC(=O)N1CC2(CCN(c3nc(N4CC(N(CC)CC)C4)nc4c(OCC(F)(F)F)c(-c5c(C)ccc6[nH]ncc56)c(C5CC5)cc34)CC2)C1 [Compound 166] | < 300 | > 90
C=CC(=O)N1CC2(CCN(c3nc(N4CC(N(C)CC(F)(F)F)C4)nc4c(OCC(F)(F)F)c(-c5c(C)ccc6[nH]ncc56)c(C5CC5)cc34)CC2)C1 [Compound 167] | 300 to 1000 | > 90
C=CC(=O)N1CC2(CCN(c3nc(N4CC(N5CC(F)C5)C4)nc4c(OCC(F)(F)F)c(-c5c(C)ccc6[nH]ncc56)c(C5CC5)cc34)CC2)C1 [Compound 168] | < 300 | > 90
C=CC(=O)N1CC2(CCN(c3nc(N4CC(N5CC(F)(F)C5)C4)nc4c(OCC(F)(F)F)c(-c5c(C)ccc6[nH]ncc56)c(C5CC5)cc34)CC2)C1 [Compound 169] | 300 to 1000 | 50 to 90
C=CC(=O)N1CC2(CCN(c3nc(N4CC(N5CC(OCC)C5)C4)nc4c(OCC(F)(F)F)c(-c5c(C)ccc6[nH]ncc56)c(C5CC5)cc34)CC2)C1 [Compound 170] | 300 to 1000 | 50 to 90

Now from value to compound, other results behind:

IC50 [2] [nM] | Structure (SMILES) | inhibition at 1 µM [1] [%]
< 300 | C=CC(=O)N1CC2(CCN(c3nc(N4CC(N5CC[C@H](F)C5)C4)nc4c(OCC(F)(F)F)c(-c5c(C)ccc6[nH]ncc56)c(C5CC5)cc34)CC2)C1 [Compound 172] | > 90
< 300 | C=CC(=O)N1CC2(CCN(c3nc(N4CC(N5CC[C@H](OC)C5)C4)nc4c(OCC(F)(F)F)c(-c5c(C)ccc6[nH]ncc56)c(C5CC5)cc34)CC2)C1 [Compound 174] | > 90
< 300 | C=CC(=O)N1CC2(CCN(c3nc(N4CC(N5CC[C@@H](OC)C5)C4)nc4c(OCC(F)(F)F)c(-c5c(C)ccc6[nH]ncc56)c(C5CC5)cc34)CC2)C1 [Compound 175] | > 90
300 to 1000 | C=CC(=O)N1CC2(CCN(c3nc(N4CC(N5CCC(F)(F)C5)C4)nc4c(OCC(F)(F)F)c(-c5c(C)ccc6[nH]ncc56)c(C5CC5)cc34)CC2)C1 [Compound 176] | 50 to 90
< 300 | C=CC(=O)N1CC2(CCN(c3nc(N4CC(N5CCCCC5)C4)nc4c(OCC(F)(F)F)c(-c5c(C)ccc6[nH]ncc56)c(C5CC5)cc34)CC2)C1 [Compound 177] | > 90
< 300 | C=CC(=O)N1CC2(CCN(c3nc(N4CC(N5CCC(F)CC5)C4)nc4c(OCC(F)(F)F)c(-c5c(C)ccc6[nH]ncc56)c(C5CC5)cc34)CC2)C1 [Compound 178] | > 90
< 300 | C=CC(=O)N1CC2(CCN(c3nc(N4CC(N5CCC(OC)CC5)C4)nc4c(OCC(F)(F)F)c(-c5c(C)ccc6[nH]ncc56)c(C5CC5)cc34)CC2)C1 [Compound 179] | > 90
300 to 1000 | C=CC(=O)N1CC2(CCN(c3nc(N4CC(N5CCC(F)(F)CC5)C4)nc4c(OCC(F)(F)F)c(-c5c(C)ccc6[nH]ncc56)c(C5CC5)cc34)CC2)C1 [Compound 180] | > 90
< 300 | C=CC(=O)N1CC2(CCN(c3nc(N4CC[C@H](N5CCC5)C4)nc4c(OCC(F)(F)F)c(-c5c(C)ccc6[nH]ncc56)c(C5CC5)cc34)CC2)C1 [Compound 181] | > 90
< 300 | C=CC(=O)N1CC2(CCN(c3nc(N4CC[C@@H](N5CCC5)C4)nc4c(OCC(F)(F)F)c(-c5c(C)ccc6[nH]ncc56)c(C5CC5)cc34)CC2)C1 [Compound 182] | > 90
< 300 | C=CC(=O)N1CC2(CCN(c3nc(N4CC[C@H](N5CCCC5)C4)nc4c(OCC(F)(F)F)c(-c5c(C)ccc6[nH]ncc56)c(C5CC5)cc34)CC2)C1 [Compound 183] | > 90
< 300 | C=CC(=O)N1CC2(CCN(c3nc(N4CC[C@@H](N5CCCC5)C4)nc4c(OCC(F)(F)F)c(-c5c(C)ccc6[nH]ncc56)c(C5CC5)cc34)CC2)C1 [Compound 184] | > 90
< 300 | C=CC(=O)N1CC2(CCN(c3nc(N4CC[C@H](N(C)C)C4)nc4c(OCC(F)(F)F)c(-c5c(C)ccc6[nH]ncc56)c(C5CC5)cc34)CC2)C1 [Compound 185] | > 90
< 300 | C=CC(=O)N1CC2(CCN(c3nc(N4CC[C@@H](N(C)C)C4)nc4c(OCC(F)(F)F)c(-c5c(C)ccc6[nH]ncc56)c(C5CC5)cc34)CC2)C1 [Compound 186] | > 90
< 300 | C=CC(=O)N1CC2(CCN(c3nc(N4CC[C@H](N(C)CC)C4)nc4c(OCC(F)(F)F)c(-c5c(C)ccc6[nH]ncc56)c(C5CC5)cc34)CC2)C1 [Compound 187] | > 90
< 300 | C=CC(=O)N1CC2(CCN(c3nc(N4CC[C@@H](N(C)CC)C4)nc4c(OCC(F)(F)F)c(-c5c(C)ccc6[nH]ncc56)c(C5CC5)cc34)CC2)C1 [Compound 188] | > 90
< 300 | C=CC(=O)N1CC2(CCN(c3nc(N4CC[C@H](N(CC)CC)C4)nc4c(OCC(F)(F)F)c(-c5c(C)ccc6[nH]ncc56)c(C5CC5)cc34)CC2)C1 [Compound 189] | > 90
< 300 | C=CC(=O)N1CC2(CCN(c3nc(N4CC[C@@H](N(CC)CC)C4)nc4c(OCC(F)(F)F)c(-c5c(C)ccc6[nH]ncc56)c(C5CC5)cc34)CC2)C1 [Compound 190] | > 90
< 300 | C=CC(=O)N1CC2(CCN(c3nc(N4CC[C@H](N5CC[C@H](F)C5)C4)nc4c(OCC(F)(F)F)c(-c5c(C)ccc6[nH]ncc56)c(C5CC5)cc34)CC2)C1 [Compound 191] | > 90
